These results are taken from US20240239788A1, “SMALL MOLECULE INHIBITORS OF KRAS G12D MUTANT” (Merck Sharp & Dohme LLC, priority 2021, published 2024).

Structures are written as SMILES. Where a name gives a salt, the structure may show the parent alone. Read-outs that look alike come from different tables or passages of the source.

The subject of test [1] is AsPC-1 cells containing homozygous KRAS-G12D activating mutation. Description: Cellular phospho-ERK assay with 10% FBS (Examples 107a-256). The test is classed as cell-based. The protocol:
5% CO2 for 2 hours. […] Assay plates were read on a EnVision Multimode Plate Reader (PerkinElmer) and the ratio of p-Erk vs total Erk in each well was used as the final readout.

The target in test [2] is KRAS protein containing G12D mutation (Homo sapiens (Human), UniProt P01116, G12D). The test is described as follows: SOS-catalyzed nucleotide exchange assay (GNE), TR-FRET. The class given is biochemical. To be noted: biotinylated KRAS G12D, SOS and GTP, 60-minute incubation. The protocol: Compounds are added to this complex and then after a 60-minute incubation time the mixture is treated with SOS and unlabeled GTP. Small molecule inhibitors stabilize the Bodipy-GDP complex whereas the untreated protein rapidly exchanges Bodipy-GDP for unlabeled GTP resulting in reduced TR-FRET signal.
This solution is referred to as biotinylated KRAS G12D stock solution.
In general terms: Time-resolved FRET reads energy transfer from a long-lived donor to a nearby acceptor.

[3] abbreviates: Homo sapiens, ASPC1, 2 h, read-out: IC50 (nM) pERK (cell with FBS 10%), AsPC-1 cells, 10% fetal bovine serum, 2 hours, ratio of p-Erk vs total Erk.
[4] abbreviates: read-out: IC50 (nM) pERK (cell with FBS 10%), AsPC-1 cells, 10% fetal bovine serum, 2 hours, ratio of p-Erk vs total Erk.

KRAS protein containing G12D mutation, sequence (P01116 other isoform, or with tags, fused parts or gaps G12D (already in the parent)): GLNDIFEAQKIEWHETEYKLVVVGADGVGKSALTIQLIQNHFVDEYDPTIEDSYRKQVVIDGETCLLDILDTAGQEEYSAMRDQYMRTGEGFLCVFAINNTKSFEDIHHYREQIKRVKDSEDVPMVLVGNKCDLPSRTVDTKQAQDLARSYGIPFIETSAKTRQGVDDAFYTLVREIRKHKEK

Consider `CCc1cccc2cccc(-c3c(F)cc4c(N5C[C@H]6CC[C@@](C)(C5)N6)nc(OC[C@@]56CCCN5C[C@H](F)C6)nc4c3F)c12` [Ex. 141, 7-(8-ethylnaphthalen-1-yl)-6,8-difluoro-2-(((2R,7aS)-2-fluorotetrahydro-1H-pyrrolizin-7a(5H)-yl)methoxy)-4-((1S,5R)-1-methyl-3,8-diazabicyclo[3.2.1]octan-3-yl)-quinazoline, TFA], for which the IC50 came out at 16400 nM in test [1] (setting [3]) and 139 nM in test [2].
With `Cc1cc2[nH]ncc2c(-c2c(F)cc3c(N4C[C@H]5CC[C@@](C)(C4)N5)nc(OC[C@@]45CCCN4C[C@H](F)C5)nc3c2F)c1OC(F)(F)F` (single isomer, unassigned) [Ex. 126a], the IC50 in test [1] (setting [4]) came to 1240 nM; in test [2] it was 8.59 nM.
With `C#Cc1cccc2cc(O)cc(-c3c(F)cc4c(N5CC6CC[C@@](C)(C5)N6)nc(OCC5(CN6CC[C@@H](F)C6)CC5)nc4c3F)c12` (single isomer, unassigned) [Ex. 169], the IC50 in test [1] (Homo sapiens, ASPC1, 2 h, read-out: IC50 (nM) pERK (cell with FBS 10%)) stood at 73 nM; in test [2], 0.7 nM.
On to `Nc1cc(-c2c(F)cc3c(N4CC5CCC(C4)N5)nc(OC[C@@]45CCCN4C[C@H](F)C5)nc3c2F)c2c(Cl)cccc2n1` (single isomer, unassigned) [Ex. 231a], for which the IC50 was 9300 nM in test [1] (setting [4]) and 1490 nM in test [2].
On the same counts, the results for `C[C@]12CCC(CN(c3nc(OC[C@]4(CN[C@@H]5CC[C@H](O)C5)CC4(F)F)nc4c(F)c(-c5cc(O)cc6cccc(Cl)c56)c(F)cc34)C1)N2` (single isomer, unassigned) [Ex. 219b] are 9380 nM and 627 nM.
For the compound `Nc1cnc(C(F)(F)F)c(-c2c(F)cc3c(N4C[C@H]5CC[C@@H](C4)N5)nc(OC[C@@]45CCCN4C[C@H](F)C5)nc3c2F)n1` [Ex. 134, 6-(4-((1R,5S)-3,8-diazabicyclo[3.2.1]octan-3-yl)-6,8-difluoro-2-(((2R,7aS)-2-fluorotetrahydro-1H-pyrrolizin-7a(5H)-yl)methoxy)quinazolin-7-yl)-5-(trifluoromethyl)pyrazin-2-amine], the results for the IC50 in test [1] (setting [3]) and in test [2] were 13600 nM and 870 nM, respectively.
`Cc1cc2[nH]ncc2c(-c2c(F)cc3c(N4CC5CCC(C4)N5)nc(OC[C@@]45CCCN4C[C@H](F)C5)nc3c2F)c1C(F)(F)F` [Ex. 140, 4-((1R,5S)-3,8-diazabicyclo[3.2.1]octan-3-yl)-6,8-difluoro-2-(((2R,7aS)-2-fluorotetrahydro-1H-pyrrolizin-7a(5H)-yl)meth-oxy)-7-(6-methyl-5-(trifluoromethyl)-1H-indazol-4-yl)quin-azoline, TFA]: the IC50 in test [1] (setting [3]) worked out at 113 nM; in test [2], 3.88 nM.
Turning to `C[C@]12CCC(CN(c3nc(OCC45CCCN4CC(F)C5)nc4c(F)c(-c5nc(N)cc6cccc(Cl)c56)c(F)cc34)C1)N2` (stereo in doubt) [Ex. 131, 8-chloro-1-(6,8-difluoro-2-(((2S,7aR)-2-fluorotetrahydro-1H-pyrrolizin-7a(5H)-yl)methoxy)-4-((1S,5R)-1-methyl-3,8-diaza-bicyclo[3.2.1]octan-3-yl)quinazolin-7-yl) isoquinolin-3-amine], the IC50 came to 6980 nM in test [1] (setting [3]) and 188 nM in test [2].
`C#Cc1c(F)ccc2cc(N)nc(-c3c(F)cc4c(N5C[C@H]6CC[C@@H](C5)N6)nc(OC[C@@]56CCCN5C[C@H](F)C6)nc4c3F)c12` (single isomer, unassigned) [252a]: the values for the IC50 in test [1] (setting [3]) and in test [2] were 64.3 nM and 0.85 nM, respectively.
As for `C[C@]12CC[C@H](CN(c3nc(OCC4(CN5CCCC(O)(C(F)(F)F)C5)CC4)nc4c(F)c(-c5cc(O)cc6cccc(Cl)c56)c(F)cc34)C1)N2` (mixture of isomers) [Ex. 206, rac-1-((1-(((7-(8-chloro-3-hydroxynaphthalen-1-yl)-6,8-difluoro-4-((1S,5R)-1-methyl-3,8-diazabicyclo-[3.2.1]octan-3-yl)quinazolin-2-yl)oxy)methyl)cyclo-propyl)methyl)-3-(trifluoromethyl)piperidin-3-ol], the IC50 in test [1] (setting [3]) is 30000 nM; in test [2], 1340 nM.
`Cc1c(F)c(N)nc(-c2c(Cl)cc3c(N4C[C@H]5CC[C@@H](C4)N5)nc(OC[C@@]45CCCN4C[C@H](F)C5)nc3c2F)c1C(F)(F)F` [Ex. 236]: the IC50 came to 68.7 nM in test [1] (setting [4]) and 3.11 nM in test [2].
For the compound `Cc1cc2[nH]ncc2c(-c2c(F)cc3c(N4CC5CCC(C4)N5)nc(OC[C@@]45CCCN4C[C@H](F)C5)nc3c2F)c1OC(F)(F)Cl` (single isomer, unassigned) [compound 253], the IC50 in test [1] (setting [3]) worked out at 111 nM; in test [2], 1.74 nM.
`C#Cc1csc2ccnc(-c3c(F)cc4c(N5C[C@H]6CC[C@@H](C5)N6)nc(OC[C@@]56CCCN5C[C@H](F)C6)nc4c3F)c12` [Ex. 152, 4-(4-((1R,5S)-3,8-diazabicyclo[3.2.1]octan-3-yl)-6,8-difluoro-2-(((2R,7aS)-2-fluorotetrahydro-1H-pyrrolizin-7a(5H)-yl)-methoxy)quinazolin-7-yl)-3-ethynylthieno[3,2-c]pyridine]: the IC50 worked out at 5190 nM in test [1] (setting [3]) and 848 nM in test [2].
In the case of `Nc1cc(-c2c(Cl)cc3c(N4CC5CCC(C4)N5)nc(OC[C@@]45CCCN4C[C@H](F)C5)nc3c2F)c(C(F)(F)F)c(Cl)n1` (single isomer, unassigned) [Ex. 155b], the IC50 in test [1] (setting [3]) came to 144 nM; in test [2] it was 2.33 nM.
As to `CCc1cccc2cc(O)cc(-c3c(F)cc4c(N5CC6CC[C@@](C)(C5)N6)nc(OC[C@@]56CCCN5C[C@H](F)C6)nc4c3F)c12` (single isomer, unassigned) [Ex. 178a], the IC50 in test [1] (setting [4]) was 108 nM; in test [2], 1.73 nM.
Taken in the same sequence, the figures for `C#Cc1c(F)ccc2cc(O)cc(-c3c(F)cc4c(N5CC6CC[C@@](C)(C5)N6)nc(OC[C@@]56CCCN5C[C@H](F)C6)nc4c3F)c12` (single isomer, unassigned) [Ex. 177a] were 12.7 nM and 0.8 nM.
For `Cc1c(C(F)(F)F)c(-c2c(F)cc3c(N4CC5CCC(C4)N5)nc(OC[C@@]45CCCN4C[C@H](F)C5)nc3c2F)c2cn[nH]c2c1F` (single isomer, unassigned) [Ex. 166a], the IC50 was 30000 nM in test [1] (setting [4]) and 944 nM in test [2].
Taken in the same sequence, the figures for `C#Cc1cccc2cc(O)c(F)c(-c3c(F)cc4c(N5CC6CC[C@@](C)(C5)N6)nc(OC[C@@]56CCCN5C[C@H](F)C6)nc4c3F)c12` (single isomer, unassigned) [Ex. 192b] were 1570 nM and 37 nM.
On to `Cc1n[nH]c2ncc(C(F)(F)F)c(-c3c(F)cc4c(N5C[C@H]6CC[C@@H](C5)N6)nc(OC[C@@]56CCCN5C[C@H](F)C6)nc4c3F)c12` [Ex. 234, 4-((1R,5S)-3,8-diazabicyclo[3.2.1]octan-3-yl)-6,8-difluoro-2-(((2R,7aS)-2-fluorotetrahydro-1H-pyrrolizin-7a(5H)-yl)methoxy)-7-(3-methyl-5-(trifluoromethyl)-1H-pyrazolo[3.4-b]pyridin-4-yl)quinazoline], for which the IC50 came out at 785 nM in test [1] (setting [4]) and 64 nM in test [2].
`CN(C)CC1(COc2nc(N3C[C@H]4CC[C@@](C)(C3)N4)c3cc(F)c(-c4cc(O)cc5ccccc45)c(F)c3n2)CC1C(=O)O` (stereo partly drawn) [Ex. 107, 2-(((6,8-difluoro-7-(3-hydroxynaphthalen-1-yl)-4-((1S,5R)-1-methyl-3,8-diazabicyclo[3.2.1]octan-3-yl)quinazolin-2-yl)oxy)methyl)-2-((dimethylamino)methyl)cyclopropane-1-carboxylc acid]: the IC50 was found to be 30000 nM in test [1] (setting [4]) and 25.4 nM in test [2].
In the case of `C[C@]12CCC(CN(c3nc(OC[C@]4(CN[C@H]5C[C@@H](O)C5)CC4(F)F)nc4c(F)c(-c5cc(O)cc6cccc(Cl)c56)c(F)cc34)C1)N2` (single isomer, unassigned) [Ex. 216a], the IC50 in test [1] (setting [4]) amounted to 3090 nM; in test [2] it was 6.65 nM.
On the same counts, the results for `CCc1cnn2cc(O)cc(-c3c(F)cc4c(N5C[C@H]6CC[C@@](C)(C5)N6)nc(OC[C@@]56CCCN5C[C@H](F)C6)nc4c3F)c12` [compound 229, 4-(6,8-difluoro-2-(((2R,7aS)-2-fluorotetrahydro-1H-pyrrolizin-7a(5H)-yl)methoxy)-4-((1S,5R)-1-methyl-3,8-diazabicyclo[3.2.1]octan-3-yl)quinazolin-7-yl)-3-ethylpyrazolo[1.5-a]pyridin-6-ol] are 1740 nM and 98.5 nM.
As for `COCCNC[C@@]1(COc2nc(N3C[C@H]4CC[C@@](C)(C3)N4)c3cc(F)c(-c4c(C(F)(F)F)c(C)cc5[nH]ncc45)c(F)c3n2)CC1(F)F` [compound 205, (1S,5R)-3-(2-(((R)-2,2-difluoro-1-(((2-methoxyethyl)amino)methyl)cyclopropyl)methoxy)-6,8-difluoro-7-(6-methyl-5-(trifluoromethyl)-1H-indazol-4-yl)quinazolin-4-yl)-1-methyl-3,8-diazabicyclo[3.2.1]octan-8-ium 2,2,2-trifluoroacetate], the IC50 in test [1] (setting [3]) was found to be 9380 nM; in test [2], 93.9 nM.
With `CC(O)(COc1nc(N2CC3CC[C@@](C)(C2)N3)c2cc(F)c(-c3cc(O)cc4cccc(Cl)c34)c(F)c2n1)CN1CC[C@@H](F)C1` (single isomer, unassigned) [Ex. 209], the IC50 in test [1] (setting [3]) was 2910 nM; in test [2], 46.1 nM.
`Nc1cc(F)c(C(F)(F)F)c(-c2c(F)cc3c(N4CC5CCC(C4)N5)nc(OC[C@@]45CCCN4C[C@H](F)C5)nc3c2F)c1F` (single isomer, unassigned) [Ex. 145b]: the IC50 is 358 nM in test [1] (setting [4]) and 14.1 nM in test [2].
